One block for each compound: values may come before it.
Key:
[1] = Cmax in rat at 10 mg/kg, po; assay type: ADME, organism-based; parameters: dose 10 mg/kg, route oral; settings: in vivo
Cytochrome P450 2C19 = Cytochrome P450 2C19 (Homo sapiens, UniProt P33261); assay: Inhibition of human CYP2C19; assay type: ADME
[2] = Half life in rat at 10 mg/kg, po; assay type: ADME, organism-based; parameters: dose 10 mg/kg, route oral; settings: in vivo
[3] = target: C-C chemokine receptor type 2 (Homo sapiens, UniProt P41597); assay: Antagonist activity at human CCR2; assay type: functional
Cytochrome P450 1A2 = target: T1, Cytochrome P450 1A2 (Homo sapiens, UniProt P05177); assay: Inhibition of human CYP1A2; assay type: ADME
T1 sequence (P05177 whole entry): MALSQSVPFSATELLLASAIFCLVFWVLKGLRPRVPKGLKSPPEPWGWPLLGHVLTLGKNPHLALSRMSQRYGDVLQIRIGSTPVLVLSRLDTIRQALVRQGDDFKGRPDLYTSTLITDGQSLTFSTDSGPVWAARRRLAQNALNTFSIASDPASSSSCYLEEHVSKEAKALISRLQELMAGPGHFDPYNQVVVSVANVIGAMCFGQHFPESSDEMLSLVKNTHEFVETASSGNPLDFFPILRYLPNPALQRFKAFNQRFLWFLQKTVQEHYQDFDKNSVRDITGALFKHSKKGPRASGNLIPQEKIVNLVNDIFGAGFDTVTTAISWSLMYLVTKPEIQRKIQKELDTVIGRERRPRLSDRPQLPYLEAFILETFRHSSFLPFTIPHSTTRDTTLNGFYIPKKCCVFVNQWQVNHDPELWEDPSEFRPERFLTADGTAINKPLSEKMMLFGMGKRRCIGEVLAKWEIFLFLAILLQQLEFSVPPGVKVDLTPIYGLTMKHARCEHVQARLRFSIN

Cytochrome P450 3A4 [4] = target: T2, Cytochrome P450 3A4 (Homo sapiens, UniProt P08684); assay: Inhibition of human CYP3A4 using 7-benzyloxyquinoline as substrate; assay type: ADME
Cytochrome P450 3A4 [5] = target: T2, Cytochrome P450 3A4; assay: Inhibition of human CYP3A4 using dibenzylfluorescein as substrate; assay type: ADME
Cytochrome P450 3A4 [6] = target: T2, Cytochrome P450 3A4; assay: Inhibition of human CYP3A4 using 7-benzyloxy-4-trifluoromethylcoumarin as substrate; assay type: ADME
Cytochrome P450 2D6 = Cytochrome P450 2D6 (Homo sapiens, UniProt P10635); assay: Inhibition of human CYP2D6; assay type: ADME
[7] = Oral bioavailability in rat at 10 mg/kg; assay type: ADME, organism-based; settings: in vivo

Chain of C-C chemokine receptor type 2 (P41597 whole entry): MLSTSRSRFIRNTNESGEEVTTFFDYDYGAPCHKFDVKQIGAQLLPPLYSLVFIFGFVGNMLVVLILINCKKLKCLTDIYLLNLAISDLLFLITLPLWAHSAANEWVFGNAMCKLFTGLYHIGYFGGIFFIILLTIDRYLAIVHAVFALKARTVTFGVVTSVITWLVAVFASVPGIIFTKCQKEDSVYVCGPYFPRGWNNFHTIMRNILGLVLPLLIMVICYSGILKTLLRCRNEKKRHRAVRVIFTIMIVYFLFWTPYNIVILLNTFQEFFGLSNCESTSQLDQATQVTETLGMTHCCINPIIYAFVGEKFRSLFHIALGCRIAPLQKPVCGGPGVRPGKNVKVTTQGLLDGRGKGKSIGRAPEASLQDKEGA
T2 sequence (P08684 whole entry): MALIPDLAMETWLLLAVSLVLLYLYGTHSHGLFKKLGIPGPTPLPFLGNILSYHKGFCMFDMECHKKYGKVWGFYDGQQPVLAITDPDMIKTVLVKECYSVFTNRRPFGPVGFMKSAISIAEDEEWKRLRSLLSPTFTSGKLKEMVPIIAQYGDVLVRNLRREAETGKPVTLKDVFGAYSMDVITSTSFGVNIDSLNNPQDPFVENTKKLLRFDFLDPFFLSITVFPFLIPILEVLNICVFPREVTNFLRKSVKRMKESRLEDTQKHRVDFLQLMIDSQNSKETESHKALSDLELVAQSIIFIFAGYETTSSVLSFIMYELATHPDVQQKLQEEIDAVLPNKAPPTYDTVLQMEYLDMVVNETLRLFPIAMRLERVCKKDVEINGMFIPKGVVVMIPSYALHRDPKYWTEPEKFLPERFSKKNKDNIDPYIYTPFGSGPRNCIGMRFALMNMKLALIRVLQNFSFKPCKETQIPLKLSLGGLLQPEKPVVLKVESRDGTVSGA
Chain of Cytochrome P450 2D6 (P10635 whole entry): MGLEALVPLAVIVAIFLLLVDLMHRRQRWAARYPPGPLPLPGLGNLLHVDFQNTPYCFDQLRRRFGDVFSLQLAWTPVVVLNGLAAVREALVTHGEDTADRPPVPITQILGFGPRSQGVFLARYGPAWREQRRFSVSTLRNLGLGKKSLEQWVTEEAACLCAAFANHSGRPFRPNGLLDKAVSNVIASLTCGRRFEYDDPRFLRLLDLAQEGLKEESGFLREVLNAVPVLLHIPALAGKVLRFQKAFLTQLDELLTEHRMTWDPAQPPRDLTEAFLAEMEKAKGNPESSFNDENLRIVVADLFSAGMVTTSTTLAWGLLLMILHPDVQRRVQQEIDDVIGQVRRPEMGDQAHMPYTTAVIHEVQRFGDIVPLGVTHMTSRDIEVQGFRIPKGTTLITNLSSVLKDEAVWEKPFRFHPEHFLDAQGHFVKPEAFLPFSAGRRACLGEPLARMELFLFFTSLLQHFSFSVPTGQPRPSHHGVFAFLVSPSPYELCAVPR
Chain of Cytochrome P450 2C19 (P33261 whole entry): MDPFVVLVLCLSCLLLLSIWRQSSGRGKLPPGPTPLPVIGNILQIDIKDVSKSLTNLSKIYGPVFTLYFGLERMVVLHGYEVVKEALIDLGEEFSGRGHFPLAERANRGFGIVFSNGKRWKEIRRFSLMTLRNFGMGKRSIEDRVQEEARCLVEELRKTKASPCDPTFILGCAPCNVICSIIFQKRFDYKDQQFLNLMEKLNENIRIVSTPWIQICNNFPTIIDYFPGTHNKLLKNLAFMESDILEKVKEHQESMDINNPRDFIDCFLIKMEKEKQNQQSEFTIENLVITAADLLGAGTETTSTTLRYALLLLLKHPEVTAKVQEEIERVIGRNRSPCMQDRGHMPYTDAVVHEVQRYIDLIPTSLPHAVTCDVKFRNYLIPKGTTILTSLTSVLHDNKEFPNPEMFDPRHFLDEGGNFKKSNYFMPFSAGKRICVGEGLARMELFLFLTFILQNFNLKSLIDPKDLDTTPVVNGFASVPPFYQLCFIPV

Cmax [1]: 341 ng/mL | IC50 (Cytochrome P450 2C19): 27.1 µM | half-life [2]: 336 min | IC50 [3]: 4 nM | IC50 (Cytochrome P450 1A2): > 40 µM | IC50 (Cytochrome P450 3A4 [4]): > 40 µM | IC50 (Cytochrome P450 3A4 [5]): 20.6 µM | IC50 (Cytochrome P450 3A4 [6]): 25.2 µM | IC50 (Cytochrome P450 2D6): 13.3 µM | bioavailability [7]: 36%
Compound: O=C(/C=C/c1cc(F)cc(F)c1)N1CCC([C@@H](CO)N2CCC(c3c[nH]c4ncccc34)CC2)CC1

IC50 [3]: 6 nM
Compound: O=C(/C=C/c1ccc(Cl)c(Cl)c1)N1CCC(C(CO)N2CCC(c3c[nH]c4ncccc34)CC2)CC1 (racemic)

IC50 [3]: 14 nM
Compound: O=C(Nc1ccc(Cl)c(Cl)c1)N1CCC(C(CO)N2CCC(c3c[nH]c4ncccc34)CC2)CC1 (racemic)

IC50 [3]: 17 nM
Compound: O=C(O)C(C1CCN(C(=O)/C=C/c2cc(F)c(F)c(F)c2)CC1)N1CCC(c2c[nH]c3ncccc23)CC1 (stereo unspecified)

IC50 [3]: 7 nM
Compound: O=C(/C=C/c1cc(F)c(F)c(F)c1)N1CCC(C(CO)N2CCC(c3c[nH]c4ncccc34)CC2)CC1 (racemic)

IC50 [3]: 6 nM
Compound: O=C(/C=C/c1cc(F)cc(F)c1)N1CCC(C(CO)N2CCC(c3c[nH]c4ncccc34)CC2)CC1 (racemic)

IC50 [3]: 1300 nM
Compound: O=C(/C=C/c1cc(F)c(F)c(F)c1)N1CCC(CN2CCC(c3c[nH]c4ncccc34)CC2)CC1

Reference: ChEMBL document CHEMBL1152182, “Synthesis and structure-activity relationship of 7-azaindole piperidine derivatives as CCR2 antagonists” (Bioorg Med Chem Lett, 2008)
